Data published in ChEMBL document CHEMBL1201862, “PubChem BioAssay data set” (2004).
Calls of active or inactive are those of the source.

What was measured:
[1] = biological target: T1, High affinity choline transporter 1 (Homo sapiens, UniProt Q9GZV3); test: CHT inhibitors, dose response, cell-based, 5-point CRC, membrane potential dye (AID 504840); type: functional
T1 sequence (Q9GZV3 whole entry): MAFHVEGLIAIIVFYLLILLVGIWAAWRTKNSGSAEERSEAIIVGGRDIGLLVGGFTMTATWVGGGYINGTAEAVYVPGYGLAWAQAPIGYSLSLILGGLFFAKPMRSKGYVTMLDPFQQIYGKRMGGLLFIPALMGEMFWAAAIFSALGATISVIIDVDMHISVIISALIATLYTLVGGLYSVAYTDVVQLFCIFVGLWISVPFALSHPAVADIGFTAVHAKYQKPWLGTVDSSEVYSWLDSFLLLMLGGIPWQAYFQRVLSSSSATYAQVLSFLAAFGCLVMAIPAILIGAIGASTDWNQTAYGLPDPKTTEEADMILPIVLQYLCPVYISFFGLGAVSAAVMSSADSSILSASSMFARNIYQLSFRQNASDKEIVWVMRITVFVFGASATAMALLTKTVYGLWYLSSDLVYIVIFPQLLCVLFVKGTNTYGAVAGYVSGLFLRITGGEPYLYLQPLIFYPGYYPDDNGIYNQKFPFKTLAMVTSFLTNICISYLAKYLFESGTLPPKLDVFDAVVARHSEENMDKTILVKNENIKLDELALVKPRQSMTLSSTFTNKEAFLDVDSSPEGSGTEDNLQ

Melanocortin receptor 4 = Melanocortin receptor 4 (Homo sapiens, UniProt P32245); type: functional, cell-based;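 also: Cell-based assay with luminescence read-out, confirmatory dose-response testing for agonist activity of biased ligands at MC4R; human U2OS cells with tagged receptor and beta-arrestin; potency of agonists that increase receptor coupling to beta-arrestin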
Chain of Melanocortin receptor 4 (P32245 whole entry): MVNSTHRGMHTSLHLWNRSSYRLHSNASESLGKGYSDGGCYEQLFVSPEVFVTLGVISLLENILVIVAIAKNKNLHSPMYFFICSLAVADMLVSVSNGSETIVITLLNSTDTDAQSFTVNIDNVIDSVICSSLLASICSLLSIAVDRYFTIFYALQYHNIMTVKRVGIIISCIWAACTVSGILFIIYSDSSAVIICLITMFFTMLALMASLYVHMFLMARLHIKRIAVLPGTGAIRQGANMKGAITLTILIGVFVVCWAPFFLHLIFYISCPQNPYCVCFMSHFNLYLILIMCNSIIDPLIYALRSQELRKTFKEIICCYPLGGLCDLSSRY

[2] = microbe, parasite or virus in culture; type: functional; conditions: Mycobacterium tuberculosis
[3] = biological target: Luciferin 4-monooxygenase (Photinus pyralis, UniProt P08659); test: firefly luciferase enzyme inhibitors, dose response, biochemical, luminescence (AID 1891)
Chain of Luciferin 4-monooxygenase (P08659 whole entry): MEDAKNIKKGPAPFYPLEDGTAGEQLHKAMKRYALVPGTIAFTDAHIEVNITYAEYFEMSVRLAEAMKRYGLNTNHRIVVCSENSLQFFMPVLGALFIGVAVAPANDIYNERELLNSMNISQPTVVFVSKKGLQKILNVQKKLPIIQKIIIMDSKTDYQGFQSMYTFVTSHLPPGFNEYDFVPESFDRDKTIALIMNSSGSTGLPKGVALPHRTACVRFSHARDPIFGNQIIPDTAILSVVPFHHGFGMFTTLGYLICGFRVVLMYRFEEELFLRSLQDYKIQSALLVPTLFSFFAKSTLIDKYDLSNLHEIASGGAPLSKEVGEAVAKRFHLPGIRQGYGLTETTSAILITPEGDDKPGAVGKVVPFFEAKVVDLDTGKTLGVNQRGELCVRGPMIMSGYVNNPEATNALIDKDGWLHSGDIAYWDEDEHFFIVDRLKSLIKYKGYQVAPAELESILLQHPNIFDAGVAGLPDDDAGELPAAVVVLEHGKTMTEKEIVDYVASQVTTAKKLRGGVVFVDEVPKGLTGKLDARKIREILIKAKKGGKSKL

[4] = Luminescence Cell-Based Dose Confirmation HTS to Identify Inhibitors of Platelet Dense Granule Release. [Related pubchem assays: 1663 (Primary HTS), 1678 (Summary of Project)]; type: functional
HEK293 = test: inhibitors of LMP1-driven NF-kB reporter, dose response, cell-based, HEK293, luciferase, cherry-pick (AID 588343); type: functional; conditions: Homo sapiens
[5] = Shn3 3'UTR reporter inhibitors, dose response, cell-based, Clone20 osteoblasts, firefly luciferase, cherry-picked (AID 624132); type: functional;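 also: firefly luciferase luminescence from reporter carrying the Shn3 3'UTR in osteoblasts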
[6] = HepG2 cell cytotoxicity, dose response, cytotoxicity control for Shn3 inhibitor project, CellTiter-Glo, cherry-picked (AID 624134); type: functional, cell-based
[7] = Luminescence Cell-Based Dose Retest to Confirm Inhibitors of Cancer Stem Cells. [Related pubchem assays (depositor defined):AID2717, AID2721]; type: functional; conditions: Homo sapiens
[8] = biological target: T2, Carboxy-terminal domain RNA polymerase II polypeptide A small phosphatase 1 (Homo sapiens, UniProt Q9GZU7); test: inhibitors of CTDSP1, concentration-response testing, biochemical assay, absorbance-based, actives from ultra-high-throughput screening (AID 540297); type: functional
T2 sequence (Q9GZU7 whole entry): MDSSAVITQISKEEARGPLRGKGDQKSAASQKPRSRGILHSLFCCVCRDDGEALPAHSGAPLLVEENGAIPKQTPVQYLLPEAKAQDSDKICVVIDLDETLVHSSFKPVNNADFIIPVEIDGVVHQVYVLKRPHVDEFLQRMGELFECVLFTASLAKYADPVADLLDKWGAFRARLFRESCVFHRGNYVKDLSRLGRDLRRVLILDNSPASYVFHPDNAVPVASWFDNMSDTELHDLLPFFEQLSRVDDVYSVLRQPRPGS

Beta-galactosidase = Beta-galactosidase (Escherichia coli, UniProt Q8VNN2); test: beta-galactosidase enzyme inhibitors and activators, dose response, artefact control for CCR6 antagonist project, biochemical, E. coli enzyme, set 3 (AID 504712); type: functional
Chain of Beta-galactosidase (Q8VNN2 whole entry, canonical isoform): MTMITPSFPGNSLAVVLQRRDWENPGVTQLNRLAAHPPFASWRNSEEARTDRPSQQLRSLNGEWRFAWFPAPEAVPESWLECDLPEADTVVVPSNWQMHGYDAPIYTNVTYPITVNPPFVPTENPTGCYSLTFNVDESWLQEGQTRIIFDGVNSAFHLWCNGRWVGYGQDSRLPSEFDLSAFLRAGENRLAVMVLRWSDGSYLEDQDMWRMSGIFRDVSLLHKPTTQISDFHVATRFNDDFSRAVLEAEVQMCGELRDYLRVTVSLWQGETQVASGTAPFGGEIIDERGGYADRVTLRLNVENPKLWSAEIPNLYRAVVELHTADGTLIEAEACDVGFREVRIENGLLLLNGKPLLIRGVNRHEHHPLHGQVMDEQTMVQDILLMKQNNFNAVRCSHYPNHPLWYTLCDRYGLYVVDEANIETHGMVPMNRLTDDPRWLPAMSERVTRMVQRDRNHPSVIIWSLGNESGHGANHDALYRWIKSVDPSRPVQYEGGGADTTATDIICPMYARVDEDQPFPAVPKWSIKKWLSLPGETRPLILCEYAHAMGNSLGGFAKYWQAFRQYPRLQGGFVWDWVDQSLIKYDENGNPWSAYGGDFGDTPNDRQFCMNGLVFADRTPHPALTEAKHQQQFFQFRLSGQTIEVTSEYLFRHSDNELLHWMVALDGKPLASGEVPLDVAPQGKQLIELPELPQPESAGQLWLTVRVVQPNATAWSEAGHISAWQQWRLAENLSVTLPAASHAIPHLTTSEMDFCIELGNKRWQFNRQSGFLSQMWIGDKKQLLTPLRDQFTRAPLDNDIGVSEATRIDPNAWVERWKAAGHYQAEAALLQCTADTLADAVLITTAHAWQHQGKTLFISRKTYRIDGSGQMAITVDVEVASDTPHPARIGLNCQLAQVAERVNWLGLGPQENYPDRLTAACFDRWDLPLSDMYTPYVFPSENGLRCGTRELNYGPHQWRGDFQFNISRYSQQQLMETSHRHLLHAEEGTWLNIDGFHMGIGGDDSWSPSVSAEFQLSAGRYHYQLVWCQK

[9] = biological target: Casein kinase I isoform alpha (Homo sapiens, UniProt P48729); type: functional
Chain of Casein kinase I isoform alpha (P48729 whole entry, canonical isoform): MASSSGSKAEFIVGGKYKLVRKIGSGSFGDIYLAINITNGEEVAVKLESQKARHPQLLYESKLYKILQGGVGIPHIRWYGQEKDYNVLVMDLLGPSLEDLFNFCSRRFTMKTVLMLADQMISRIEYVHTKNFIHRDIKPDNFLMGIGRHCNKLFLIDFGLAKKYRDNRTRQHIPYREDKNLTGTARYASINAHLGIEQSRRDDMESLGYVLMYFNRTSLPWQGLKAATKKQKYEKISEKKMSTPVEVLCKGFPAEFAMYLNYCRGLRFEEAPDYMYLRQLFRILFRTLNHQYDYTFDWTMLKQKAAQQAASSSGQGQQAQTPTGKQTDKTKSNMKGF

[10] = C. albicans growth with fluconazole, confirmation, fluorescence, retest (AID 2467); type: functional, cell-based
[11] = NIH-3T3 fibroblast cytotoxicity, dose response, cytotoxicity control, cell-based, fluorescence, Alamar Blue, secondary assay (AID 2327); type: functional;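 also: NIH-3T3 mouse fibroblasts cultured with fluconazole at 8 µg/mL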
BJ [12] = test: cytotoxicity toward Ras-transformed BJeLR fibroblasts, dose response, cell-based, alamar blue fluorescence, cherrypicked samples (AID 2631); type: functional; conditions: Homo sapiens;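 also: confirmatory dose-response assay in RAS-dependent BJ fibroblasts engineered with TERT, LT and ST, with cytotoxicity read by fluorescence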
[13] = cytotoxicity in HEK-293T cells, dose response, cytotoxicity control for TCR NF-kB inhibitor project, luminescence, T-cell screen hits (AID 489026); type: functional, cell-based;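 also: cells exposed to compound about 14 hours before the viability readout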
BJ [14] = test: cytotoxicity toward BJ-TERT fibroblasts, dose response, cell-based, RAS-independent, luminescence (AID 1933); type: functional; conditions: Homo sapiens
BJ [15] = test: cytotoxicity toward BJ-TERT-LT-ST fibroblasts, dose response, cell-based, RAS-independent, luminescence (AID 1935); type: functional; conditions: Homo sapiens;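 also: BJ fibroblasts immortalized with TERT plus LT and ST oncogenes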
[16] = cytotoxicity toward DRD oncogenic fibroblasts, dose response, cell-based, non-viral oncogenic, luminescence (AID 1934); type: functional; conditions: Homo sapiens
BJ [17] = test: cells; type: functional, cell-based; conditions: Homo sapiens

CC1(C)CC(=O)C=C(Nc2cccc(Cl)c2Cl)C1
IC50 [1]: 3.16 µM (active)

COc1cccc(CC2(CO)CCCN(Cc3[nH]c4ccc(C)cc4c3C)C2)c1 (stereo not given)
EC50 (Melanocortin receptor 4): > 89.2 µM (inactive) | CC50 [2]: 39.3 µM (active) | EC50 [3]: > 112 µM (not active) | EC50 [4]: > 112 µM (not active)

C[C@@H]1CN([C@@H](C)CO)S(=O)(=O)c2ccc(/C=C/c3ccccc3)cc2O[C@@H]1CN(C)Cc1ccc(C(=O)O)cc1
AC50 (HEK293): 35.4 µM (active)

CC(=O)Nc1cc(-c2ccccc2)cn2c(-c3ccc(F)c(Cl)c3)cnc12
EC50 (Melanocortin receptor 4): > 89.2 µM (inactive)

CC(C)C[C@@H](CO)N(Cc1ccccc1)S(=O)(=O)N(Cc1ccccc1)[C@H](CO)CC(C)C
AC50 [5]: 10.1 µM (active) | AC50 [6]: 21 µM (active) | AC50 [7]: 5.76 µM (active)

COc1cccc(C2c3c(-c4ccccc4)n[nH]c3C(=O)N2c2ccc(C(=O)O)cc2)c1 (stereo not given)
IC50 [8]: 5.63 µM (active)

CCOc1ccc(C=NNc2ccc(S(=O)(=O)Nc3ccccc3C(=O)O)cc2[N+](=O)[O-])cc1OC
IC50 [8]: 3.51 µM (active) | IC50 (Beta-galactosidase): > 66.6 µM (inactive)

N#Cc1cnc(Cl)nc1N
Ki [9]: 100 µM (active)

N#C/C(=C\c1ccc(OC(=O)c2cccs2)cc1)c1nc2ccccc2[nH]1
IC50 [8]: 11.4 µM (active) | EC50 [10]: 3.35 µM (active) | EC50 [11]: 76.2 µM (active)

CC(C)Oc1ccccc1C1CC(=O)Nc2cc3c(cc21)OCCO3 (stereo not given)
EC50 (BJ [12]): 0.181 µM (active) | IC50 [13]: > 80 µM (inactive) | EC50 (BJ [14]): 1.36 µM (active) | EC50 (BJ [15]): 0.709 µM (active) | EC50 [16]: 0.676 µM (active) | EC50 (BJ [17]): 8.62 µM (active)

Cc1ccccc1NC(=O)CSc1nc2ccccc2c(=O)n1C
AC50 [5]: 7.64 µM (active) | AC50 [6]: 59.6 µM (active)
